Laboratory results taken from patent US11584801B2, “Anti-5T4 antibodies and antibody-drug conjugates” (Byondis B.V., priority 2015, dated 2023).

B1: 899 chimeric (conjugate)
VH: QSVEESGGRLVTPGTPLTLTCTVSGFSLSSYTMSWVRQACGKGLEYIGIISSSDGTWYANWVKGRFTISKTSTTVDLKMTSLTTEDTATYFCARDGTGNKYYTWDRLDLWGQGTLVTVSS
VL: NIVMTQTPSPVSGAVGGTVTINCQASQSIYNELSWYQQKPGQPPKLLIYYASTLASGVSSRFKGSGSGTQFTLTISGVESVDAATYYCQQGYSSSNVDNVFGGGTEVVVK

Assays:
MDA-MB-468 cells = assay: In vitro cytotoxicity in MDA-MB-468 cells; assay type: cell-based, human
PA-1 cells = assay: In vitro cytotoxicity in PA-1 cells; assay type: cell-based, human
[1] = Hydrophobicity by analytical HIC; assay type: physicochemical
Description: For analytical HIC, 5-10 μl of sample (1 mg/ml) was injected onto a TSKgel Butyl-NPR column (4.6 mm ID×3.5 cm L, Tosoh Bioscience, cat. nr. 14947). The elution method consisted of a linear gradient from 100% Buffer A (25 mM sodium phosphate, 1.5 M ammonium sulphate, pH 6.95) to 100% of Buffer B (25 mM sodium phosphate, pH 6.95, 20% isopropanol) at 0.4 ml/min over 20 minutes. A Waters Acquity H-Class UPLC system equipped with PDA-detector and Empower software was used. Absorbance was measured at 214 nm and the retention time of ADCs was determined.

Row | Molecule | IC50 (MDA-MB-468 cells) [nM] | MDA-MB-468 Efficacy (MDA-MB-468 cells) [%] | IC50 (PA-1 cells) [nM] | RTDAR0 ([1]; analytical HIC retention time of DAR0 species) | RTDAR2 ([1]; analytical HIC retention time of DAR2 species) | RTDAR2 − RTDAR0 ([1]; increase in HIC retention time upon conjugation of two linker drugs)
1 | Rituximab-vc-seco-DUBA: non-binding control ADC | 32.9 | 91 | 8.32 | – | – | –
2 | B1 | – | – | – | 6.5 | 10.3 | 3.8
